Reference: patent publication US20250179061A1 (SIRONAX LTD., priority 2022, published 2025)

The compounds below were run on HT-29 cells (assay: HT-29 necroptosis cell viability assay (TNF-α/SMAC mimetic/zVAD-FMK, CellTiter-Glo)). Conditions: Homo sapiens, HT-29, HT-29 necroptosis cell viability assay; class symbols for IC50; read-out: Activity.
Assay type: cell-based
Outline: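 Necroptosis was triggered by TNF-α (10 ng/ml), SMAC mimetic (6 μM) and zVAD-FMK (10 μM) in serum-free medium during 20 h compound exposure (10 concentrations, threefold steps) of HT-29 cells. IC50 from duplicate dose-responses uses CellTiter-Glo ATP luminescence as viability read-out.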

Compound | IC50
O=C(CC1CC1)Nc1cc(Oc2ccc(-n3ncn(Cc4c(F)cccc4F)c3=O)cc2)ccn1 [Example 520, 2-cyclopropyl-N-[4-[4-[4-[(2,6-difluorophenyl)methyl]-5-oxo-1,2,4-triazol-1-yl]phenoxy]-2-pyridyl]acetamide] | 100 to 1000 nM
CC(=O)Nc1cc(Oc2ccc(-n3ncn(Cc4c(F)cccc4F)c3=O)cc2)ccn1 [Example 521, N-[4-[4-[4-[(2,6-difluorophenyl)methyl]-5-oxo-1,2,4-triazol-1-yl]phenoxy]-2-pyridyl]acetamide] | 100 to 1000 nM
O=C1CC(n2ncn(Cc3ccccc3)c2=O)CCN1Cc1ccccc1 (stereo not drawn) [Example 522, 1-benzyl-4-(4-benzyl-5-oxo-4,5-dihydro-1H-1,2,4-triazol-1-yl)piperidin-2-one] | > 10000 nM
O=c1n(Cc2c(F)cccc2F)cnn1-c1ccc(Oc2ccnc(NC3CC3)c2)cc1 [Example 523, 2-(4-((2-(cyclopropylamino)pyridin-4-yl)oxy)phenyl)-4-(2,6-difluorobenzyl)-2,4-dihydro-3H-1,2,4-triazol-3-one] | 100 to 1000 nM
O=c1n(Cc2c(F)cccc2F)cnn1-c1ccc(Oc2ccnc(NCC3CC3)c2)cc1 [Example 524, 2-(4-((2-((cyclopropylmethyl)amino)pyridin-4-yl)oxy)phenyl)-4-(2,6-difluorobenzyl)-2,4-dihydro-3H-1,2,4-triazol-3-one] | < 100 nM
O=c1n(Cc2c(F)cccc2F)cnn1-c1ccc(Oc2ccnc(N3CCCC3)c2)cc1 [Example 525, 4-(2,6-difluorobenzyl)-2-(4-((2-(pyrrolidin-1-yl)pyridin-4-yl)oxy)phenyl)-2,4-dihydro-3H-1,2,4-triazol-3-one] | 100 to 1000 nM
O=c1n(Cc2c(F)cccc2F)cnn1-c1ccc(Oc2ccnc(N3CCOCC3)c2)cc1 [Example 526, 4-(2,6-difluorobenzyl)-2-(4-((2-morpholinopyridin-4-yl)oxy)phenyl)-2,4-dihydro-3H-1,2,4-triazol-3-one] | 1000 to 10000 nM
O=c1n(Cc2c(F)cccc2F)cnn1-c1ccc(Oc2ccnc(N3CC4(COC4)C3)c2)cc1 [Example 527, 2-(4-((2-(2-oxa-6-azaspiro[3.3]heptan-6-yl)pyridin-4-yl)oxy)pheny)-4-(2,6-difluorobenzyl)-2,4-dihydro-3H-1,2,4-triazol-3-one] | 100 to 1000 nM
CCC1(Nc2cc(Oc3ccc(-n4ncn(Cc5c(F)cccc5F)c4=O)cc3)ccn2)CC1 [Example 528, 4-(2,6-difluorobenzyl)-2-(4-((2-((1-ethylcyclopropyl)amino)pyridin-4-yl)oxy)phenyl)-2,4-dihydro-3H-1,2,4-triazol-3-one] | 100 to 1000 nM
O=c1n(Cc2c(F)cccc2F)cnn1-c1ccc(Oc2ccnc(N3CCCCC3)c2)cc1 [Example 529, 4-(2,6-difluorobenzyl)-2-(4-((2-(piperidin-1-yl)pyridin-4-yl)oxy)phenyl)-2,4-dihydro-3H-1,2,4-triazol-3-one] | 100 to 1000 nM
O=c1n(Cc2c(F)cccc2F)cnn1-c1ccc(Oc2ccnc(NC3CC4(COC4)C3)c2)cc1 [Example 530, 2-(4-((2-((2-oxaspiro[3.3]heptan-6-yl)amino)pyridin-4-yl)oxy)phenyl)-4-(2,6-difluorobenzyl)-2,4-dihydro-3H-1,2,4-triazol-3-one] | 100 to 1000 nM
CC1(Nc2cc(Oc3ccc(-n4ncn(Cc5c(F)cccc5F)c4=O)cc3)ccn2)COC1 [Example 531, 4-(2,6-difluorobenzyl)-2-(4-((2-((3-methyloxetan-3-yl)amino)pyridin-4-yl)oxy)phenyl)-2,4-dihydro-3H-1,2,4-triazol-3-one] | > 10000 nM
CC1(Nc2cc(Oc3ccc(-n4ncn(Cc5c(F)cccc5F)c4=O)cc3)ccn2)CC1 [Example 532, 4-(2,6-difluorobenzyl)-2-(4-((2-((1-methylcyclopropyl)amino)pyridin-4-yl)oxy)phenyl)-2,4-dihydro-3H-1,2,4-triazol-3-one] | < 100 nM
CCOC(=O)c1ocnc1Oc1ccc(-n2ncn(Cc3c(F)cccc3F)c2=O)cc1F [Example 534, ethyl 4-(4-(4-(2,6-difluorobenzyl)-5-oxo-4,5-dihydro-1H-1,2,4-triazol-1-yl)-2-fluorophenoxy)oxazole-5-carboxylate] | < 100 nM
CC(C)(O)C#Cc1cc(Oc2ccc(-n3ncn(Cc4c(F)cccc4F)c3=O)cc2)ccn1 [Example 535, 4-(2,6-difluorobenzyl)-2-(4-((2-(3-hydroxy-3-methylbut-1-yn-1-yl)pyridin-4-yl)oxy)phenyl)-2,4-dihydro-3H-1,2,4-triazol-3-one] | 100 to 1000 nM
O=c1n(Cc2c(F)cccc2F)cnn1-c1ccc(C2=CCOCC2)cc1 [Example 536, 4-(2,6-difluorobenzyl)-2-(4-(3,6-dihydro-2H-pyran-4-yl)phenyl)-2,4-dihydro-3H-1,2,4-triazol-3-one] | 1000 to 10000 nM
Cc1cc(N2CC(C)(N)C2)nn1Cc1ccc(-n2ncn(Cc3c(F)cccc3F)c2=O)cc1 [Example 537, 2-(4-((3-(3-amino-3-methylazetidin-1-yl)-5-methyl-1H-pyrazol-1-yl)methyl)phenyl)-4-(2,6-difluorobenzyl)-2,4-dihydro-3H-1,2,4-triazol-3-one] | 1000 to 10000 nM
Cc1c(N2CC(C)(NC(=O)OC(C)(C)C)C2)ncn1Cc1ccc(-n2ncn(Cc3c(F)cccc3F)c2=O)cc1 [Example 538, tert-butyl (1-(1-(4-(4-(2,6-difluorobenzyl)-5-oxo-4,5-dihydro-1H-1,2,4-triazol-1-yl)benzyl)-5-methyl-1H-imidazol-4-yl)-3-methylazetidin-3-yl)carbamate] | < 100 nM
Cc1c(I)ncn1Cc1ccc(-n2ncn(Cc3c(F)cccc3F)c2=O)cc1 [Example 539, 4-(2,6-difluorobenzyl)-2-(4-((4-iodo-5-methyl-1H-imidazol-1-yl)methyl)phenyl)-2,4-dihydro-3H-1,2,4-triazol-3-one] | < 100 nM
Cc1ncn(Cc2ccc(-n3ncn(Cc4c(F)cccc4F)c3=O)cc2)c1I [Example 540, 4-(2,6-difluorobenzyl)-2-(4-((5-iodo-4-methyl-1H-imidazol-1-yl)methyl)phenyl)-2,4-dihydro-3H-1,2,4-triazol-3-one] | < 100 nM
Cc1cc(N2CC(C)(C#N)C2)nn1Cc1ccc(-n2ncn(Cc3c(F)cccc3F)c2=O)cc1 [Example 541, 1-(1-(4-(4-(2,6-difluorobenzyl)-5-oxo-4,5-dihydro-1H-1,2,4-triazol-1-yl)benzyl)-5-methyl-1H-pyrazol-3-yl)-3-methylazetidine-3-carbonitrile] | < 100 nM
Cc1nc(C2=CCNC2)sc1Oc1ccc(-n2ncn(Cc3c(F)cccc3F)c2=O)cc1 [Example 542, 4-(2,6-difluorobenzyl)-2-(4-((2-(2,5-dihydro-1H-pyrrol-3-yl)-4-methylthiazol-5-yl)oxy)phenyl)-2,4-dihydro-3H-1,2,4-triazol-3-one] | < 100 nM
Cc1nc(-c2ccnn2C)sc1Oc1ccc(-n2ncn(Cc3c(F)cccc3F)c2=O)cc1 [Example 544, 4-(2,6-difluorobenzyl)-2-(4-((4-methyl-2-(1-methyl-1H-pyrazol-5-yl)thiazol-5-yl)oxy)phenyl)-2,4-dihydro-3H-1,2,4-triazol-3-one] | < 100 nM
Cn1nccc1Cc1ccc(-n2ncn(Cc3c(F)cccc3F)c2=O)cc1 [Example 545, 4-(2,6-difluorobenzyl)-2-(4-((1-methyl-1H-pyrazol-5-yl)methyl)phenyl)-2,4-dihydro-3H-1,2,4-triazol-3-one] | < 100 nM
